The test system of experiment [1] is Chemotherapeutic agent-caused diarrhea models of Balb/c mice. The experiment can be described thus: Relieving effect on diarrhea caused by a chemotherapeutic agent (Examples 1-201). Type of experiment: in vivo. To be noted: for diarrhea gradings compared with the chemotherapeutic agent group: administered before the chemotherapeutic agent, Table 3 and FIG. 2. From the text:
Construction of mouse animal models: Chemotherapeutic agent-caused diarrhea models of Balb/c mice were constructed according to the administration mode and frequency of the chemotherapeutic agent as shown in Table 3. After administration for several days, mice developed different extents of diarrhea symptoms (as shown in FIG. 1), which were similar to the conditions in human. Thus, chemotherapeutic agent-caused diarrhea models of mice are very good models to mimic diarrhea in human caused by the chemotherapeutic agent.
Balb/c mice were fed for 1 week, and then divided into groups. The experiment was divided into a control group, a chemotherapeutic agent group, and a group of the compound as shown in Formula I, each of which comprised 10 mice, to perform the administration experiment, for which the administration dosage, mode, time and frequency were shown in Table 3. The control group: being injected or intragastrically administered with the same solvent as that used in the group of the compound as shown in Formula I (the injection mode and time were shown in Table 3), and then being injected or intragastrically administered with the same solvent as that used in the chemotherapeutic agent group (the administration mode was shown in Table 3); the chemotherapeutic agent group: being injected or intragastrically administered with the same solvent as that used in the group of the compound as shown in Formula I (the administration mode and time were shown in Table 3), and then being injected or intragastrically administered with the chemotherapeutic agent (the type, administration mode and dosage were shown in Table 3); the group of the compound as shown in Formula I: being injected or intragastrically administered with the compound as shown in Formula I (the administration mode and time were shown in Table 3), and then being administered with the chemotherapeutic agent (the administration mode and dosage were shown in Table 3).
The scoring of diarrhea can refer to the method of Akinobu Kurita (Cancer Chemother Pharmacol 2000; 46:211-20.), Grade 0: normal feces; Grade 1: mild diarrhea, the stools is slightly wet and soft; Grade 2: moderate diarrhea, loose stools and mild perianal contamination; Grade 3: severe diarrhea, watery stools and accompanied by severe perianal staining (see FIG. 1). It is regarded as effective remission when the diarrhea grading of mice in the group of the compound as shown in Formula I is reduced compared with the average diarrhea grading of mice in the chemotherapeutic agent group.
The diarrhea grading of mice was observed and recorded every day. At the end of the experiment, the number of mice in the group of the compound as shown in Formula I whose diarrhea grading was lower than that of mice in the chemotherapeutic agent group was recorded. Table 3 lists various animal experiment combinations of chemotherapeutic agents and the compound as shown in Formula I, as well as the corresponding experimental results. (Relative remission rate %=the number of mice in the group of the compound as shown in Formula I whose diarrhea has been effectively relieved/the total number of mice in the group of the compound as shown in Formula I*100%. The establishment rate of diarrhea model in the chemotherapeutic agent group was 50%-70%, that is, about 5-7 of 10 mice developed diarrhea during the experiment, and there were cases of individual mice death or not developing diarrhea.)

In experiment [2] the test system is Chemotherapeutic agent-caused constipation models of Balb/c mice. The experiment can be described thus: Relieving effect on constipation caused by a chemotherapeutic agent (Examples 202-364). Type of experiment: in vivo. The note with it: for feces reduction rates compared with the chemotherapeutic agent group: administered before the chemotherapeutic agent, Table 4 and FIG. 4. From the text: Construction of mouse animal models: Chemotherapeutic agent-caused constipation models of Balb/c mice were constructed according to the administration mode and frequency of the chemotherapeutic agent as shown in Table 4. […] Thus, chemotherapeutic agent-caused constipation models of mice are very good models to mimic constipation caused by the chemotherapeutic agent.
Balb/c mice were fed for 1 week, and then divided into groups. The experiment was divided into a control group, a chemotherapeutic agent group, and a group of the compound as shown in Formula I, each of which comprised 10 mice, to perform the administration experiment, for which the administration dosage, mode, time and frequency were shown in Table 4. The control group: being injected or intragastrically administered with the same solvent as that used in the group of the compound as shown in Formula I (the administration mode and time were shown in Table 4), and then being injected or intragastrically administered with the same solvent as that used in the chemotherapeutic agent group (the administration mode was shown in Table 4); the chemotherapeutic agent group: being injected or intragastrically administered with the same solvent as that used in the group of the compound as shown in Formula I (the administration mode and time was shown in Table 4), and then being injected or intragastrically administered with the chemotherapeutic agent (the type, administration mode and dosage were shown in Table 4); the group of the compound as shown in Formula I: being injected or intragastrically administered with the compound as shown in Formula I (the administration mode and time was shown in Table 4), and then being administered with the chemotherapeutic agent (the administration mode and dosage were shown in Table 4).
The feces reduction rate was calculated with reference to the method of Ji Eun Kim (Lab Anim Res. 2016 December; 32(4): 231-240.). Feces reduction rate (%)=(the control group−the chemotherapeutic agent group or the group of the compound as shown in Formula I)/the control group*100%
It is regarded as effective remission when the feces reduction rate of mice in the group of the compound as shown in Formula I is reduced compared with that in the chemotherapeutic agent group.
The feces amount of mice within 3 hours was observed and recorded every day. At the end of the experiment, the number of mice in the group of the compound as shown in Formula I whose feces reduction rate was lower than that of mice in the chemotherapeutic agent group was recorded. Table 4 lists various animal experiment combinations of chemotherapeutic agents and the compound as shown in Formula I, as well as the corresponding experimental results.

The record followed here is US20240285634A1, “COMPOUND AND METHOD FOR TREATING CHEMOTHERAPY-ASSOCIATED GASTROINTESTINAL SIDE EFFECTS” (ONQUALITY PHARMACEUTICALS CHINA LTD., priority 2021, published 2024).

In the case of `O=C1NCC2(CCCCC2)n2c1cc1cnc(Nc3ccc(N4CCC(N5CCOCC5)CC4)cn3)nc12` [Compound III], the Relative remission rate in experiment [1] (Ex 89, Oxaliplatin 17.5 mg/kg intravenous single, compound 100 mg/kg intraperitoneal single 1 h before, cycle 8 days) is 40%; in experiment [1] (Ex 90, Oxaliplatin 17.5 mg/kg intravenous single, compound 100 mg/kg intraperitoneal single 4 h before, cycle 8 days), 70%; in experiment [1] (Ex 91, Oxaliplatin 17.5 mg/kg intravenous single, compound 100 mg/kg intraperitoneal single 8 h before, cycle 8 days), 40%; in experiment [1] (Ex 178, Fluorouracil 50 + oxaliplatin 5 + irinotecan 50 + tetrahydrofolic acid 90 mg/kg intravenous single, compound 150 mg/kg oral single 0.5 h before, cycle 7 days) it was 30%; in experiment [1] (Ex 179, Fluorouracil 50 + oxaliplatin 5 + irinotecan 50 + tetrahydrofolic acid 90 mg/kg intravenous single, compound 150 mg/kg oral single 4 h before, cycle 7 days) it was 50%; in experiment [1] (Ex 180, Fluorouracil 50 + oxaliplatin 5 + irinotecan 50 + tetrahydrofolic acid 90 mg/kg intravenous single, compound 150 mg/kg oral single 8 h before, cycle 7 days), 40%. The Relative remission rate was 40% in experiment [1] (Ex 181, Fluorouracil 50 + oxaliplatin 5 + irinotecan 50 + tetrahydrofolic acid 90 mg/kg intravenous single, compound 150 mg/kg oral single 12 h before, cycle 7 days); 20% in experiment [1] (Ex 182, Fluorouracil 50 + oxaliplatin 5 + irinotecan 50 + tetrahydrofolic acid 90 mg/kg intravenous single, compound 150 mg/kg oral single 24 h before, cycle 7 days); 60% in experiment [1] (Ex 199, Etoposide 60 + carboplatin 5 mg/kg intraperitoneal single, compound 100 mg/kg oral single 0.5 h before, cycle 10 days). The “diarrhea gradings compared with the chemotherapeutic agent group” value in experiment [1] is listed as “relieved to different degrees”. The “Relative remission rate (%)” value is given as 50% in experiment [2] (Example 320, Fluorouracil 125 (F) and irinotecan 240 (I) mg/kg intraperitoneal injection single, compound subcutaneous injection 100 mg/kg single, 0.5 h before chemotherapeutic agent, cycle 7 days); 20% in experiment [2] (Example 321, Fluorouracil 125 (F) and irinotecan 240 (I) mg/kg intraperitoneal injection single, compound subcutaneous injection 100 mg/kg single, 24 h before chemotherapeutic agent, cycle 7 days); 30% in experiment [2] (Example 349, Fluorouracil 100 (F), oxaliplatin 5 (O), irinotecan 100 (I) and tetrahydrofolic acid 100 (L) mg/kg intraperitoneal injection single, compound oral administration 150 mg/kg single, 6 h before chemotherapeutic agent, cycle 7 days); 30% in experiment [2] (Example 350, Fluorouracil 100 (F), oxaliplatin 5 (O), irinotecan 100 (I) and tetrahydrofolic acid 100 (L) mg/kg intraperitoneal injection single, compound oral administration 150 mg/kg single, 12 h before chemotherapeutic agent, cycle 7 days); 50% in experiment [2] (Example 362, Etoposide 60 (E) and carboplatin 5 (C) mg/kg intraperitoneal injection single, compound oral administration 100 mg/kg single, 0.5 h before chemotherapeutic agent, cycle 10 days). The “feces reduction rates compared with the chemotherapeutic agent group” value in experiment [2] is “reduced to different degrees”.

Consider `O=C1NCC2(CCCCC2)n2c1cc1cnc(Nc3ccc(N4CCNCC4)cn3)nc12` [Compound II], for which the Relative remission rate came out at 30% in experiment [1] (Ex 31, 5-Fu 125 mg/kg intraperitoneal single, compound 50 mg/kg intraperitoneal single 0.5 h before, cycle 10 days); 60% in experiment [1] (Ex 32, 5-Fu 125 mg/kg intraperitoneal single, compound 100 mg/kg intraperitoneal single 4 h before, cycle 10 days); 40% in experiment [1] (Ex 33, 5-Fu 125 mg/kg intraperitoneal single, compound 150 mg/kg intraperitoneal single 12 h before, cycle 10 days); 30% in experiment [1] (Ex 173, Fluorouracil 50 + oxaliplatin 5 + irinotecan 50 + tetrahydrofolic acid 90 mg/kg intraperitoneal single, compound 100 mg/kg oral single 0.5 h before, cycle 7 days); 30% in experiment [1] (Ex 174, Fluorouracil 50 + oxaliplatin 5 + irinotecan 50 + tetrahydrofolic acid 90 mg/kg intraperitoneal single, compound 100 mg/kg oral single 4 h before, cycle 7 days); 40% in experiment [1] (Ex 175, Fluorouracil 50 + oxaliplatin 5 + irinotecan 50 + tetrahydrofolic acid 90 mg/kg intraperitoneal single, compound 100 mg/kg oral single 8 h before, cycle 7 days). The Relative remission rate is 30% in experiment [1] (Ex 176, Fluorouracil 50 + oxaliplatin 5 + irinotecan 50 + tetrahydrofolic acid 90 mg/kg intraperitoneal single, compound 100 mg/kg oral single 12 h before, cycle 7 days); 30% in experiment [1] (Ex 177, Fluorouracil 50 + oxaliplatin 5 + irinotecan 50 + tetrahydrofolic acid 90 mg/kg intraperitoneal single, compound 100 mg/kg oral single 24 h before, cycle 7 days); 40% in experiment [1] (Ex 197, Gemcitabine (GEM) 120 mg/kg intravenous single, compound 100 mg/kg oral single 24 h before, cycle 8 days); 50% in experiment [1] (Ex 198, Etoposide 60 + carboplatin 5 mg/kg intraperitoneal single, compound 100 mg/kg oral single 2 h before, cycle 10 days). The “diarrhea gradings compared with the chemotherapeutic agent group” value in experiment [1] is listed as “relieved to different degrees”. For the same compound, the “Relative remission rate (%)” value is recorded as 50% in experiment [2] (Example 283, Oxaliplatin intravenous injection 25 mg/kg single, compound intramuscular injection 100 mg/kg single, 1 h before chemotherapeutic agent, cycle 7 days); 30% in experiment [2] (Example 284, Oxaliplatin intravenous injection 25 mg/kg single, compound intramuscular injection 100 mg/kg single, 6 h before chemotherapeutic agent, cycle 7 days); 30% in experiment [2] (Example 285, Oxaliplatin intravenous injection 25 mg/kg single, compound intramuscular injection 100 mg/kg single, 12 h before chemotherapeutic agent, cycle 7 days); 70% in experiment [2] (Example 347, Fluorouracil 100 (F), oxaliplatin 5 (O), irinotecan 100 (I) and tetrahydrofolic acid 100 (L) mg/kg intraperitoneal injection single, compound intravenous injection 100 mg/kg single, 0.5 h before chemotherapeutic agent, cycle 7 days); 50% in experiment [2] (Example 348, Fluorouracil 100 (F), oxaliplatin 5 (O), irinotecan 100 (I) and tetrahydrofolic acid 100 (L) mg/kg intraperitoneal injection single, compound intravenous injection 100 mg/kg single, 2 h before chemotherapeutic agent, cycle 7 days); 40% in experiment [2] (Example 359, Gemcitabine (GEM) intraperitoneal injection 120 mg/kg single, compound oral administration 100 mg/kg single, 12 h before chemotherapeutic agent, cycle 8 days). Moreover, the “Relative remission rate (%)” value in experiment [2] (Example 361, Etoposide 60 (E) and carboplatin 5 (C) mg/kg intraperitoneal injection single, compound oral administration 100 mg/kg single, 2 h before chemotherapeutic agent, cycle 10 days) was found to be 60%; in experiment [2] (Example 364, Gemcitabine 120 (G) and carboplatin 5 (C) mg/kg intravenous injection single, compound oral administration 100 mg/kg single, 24 h before chemotherapeutic agent, cycle 8 days), 30%. In experiment [2], the “feces reduction rates compared with the chemotherapeutic agent group” value is listed as “reduced to different degrees”.
